What all share (assay type): biochemical
In one experiment the target is T1, human JAK2 (Homo sapiens, UniProt O60674).
T1 construct: catalytic domain (amino acids 808-1132; catalog number PV4210); GST; purchased Invitrogen PV4210
Kind of experiment: JAK2 inhibition assay (polyGT substrate / Ulight-JAK1 peptide). As to conditions: recombinant human JAK2 catalytic domain; polyGT or Ulight-JAK1 peptide assay. A digest of the protocol:
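Radiometric: 0.025 mU JAK2 with 2.5 μg polyGT, 1 μM ATP plus ^33P-ATP in MOPS pH 7.5 buffer, 1% DMSO, 90 min at 30° C.; filter counting. Alternative TR-FRET format with Ulight-JAK1 peptide, 60 min at room temperature, Eu-anti-phosphotyrosine detection.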

The next experiment has as its target T2, human JAK1 (Homo sapiens, UniProt P23458).
T2 construct: catalytic domain, amino acids 866-1154; catalog number PV4774; purchased Invitrogen PV4774
Kind of experiment: JAK1 inhibition assay (polyGT substrate / Ulight-JAK1 peptide). The note with it: recombinant human JAK1 catalytic domain; polyGT or Ulight-JAK1 peptide assay. The essentials:
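Two formats. PolyGT radiometric: 45 min at 30 °C, stopped with phosphoric acid, counted as cpm. Ulight-JAK1 peptide: 60 min at room temperature, stopped with Eu-anti-phosphotyrosine/EDTA, read as RFU. Percent inhibition normalised to vehicle and 10 μM staurosporine.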

The next experiment concerns the target T3, human JAK3 (Homo sapiens, UniProt P52333).
T3 construct: catalytic domain (amino acids 781-1124; catalog number PV3855); purchased Invitrogen PV3855
Briefly: JAK3 inhibition assay. The note with it: recombinant human JAK3 catalytic domain; polyGT substrate. A digest of the protocol: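 Radiometric kinase assay: 0.5 ng JAK3 with 2.5 μg polyGT in Tris pH 7.5/MgCl2 buffer, 1 μM ATP plus 0.25 μCi 33P-γ-ATP, 1% DMSO, 45 min at 30 °C, stopped with phosphoric acid.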

Experimental findings from patent US20130217664A1, “NOVEL COMPOUNDS USEFUL FOR THE TREATMENT OF DEGENERATIVE AND INFLAMMATORY DISEASES” (priority 2012, published 2013) are described below.

T2 sequence (P23458 866-1154): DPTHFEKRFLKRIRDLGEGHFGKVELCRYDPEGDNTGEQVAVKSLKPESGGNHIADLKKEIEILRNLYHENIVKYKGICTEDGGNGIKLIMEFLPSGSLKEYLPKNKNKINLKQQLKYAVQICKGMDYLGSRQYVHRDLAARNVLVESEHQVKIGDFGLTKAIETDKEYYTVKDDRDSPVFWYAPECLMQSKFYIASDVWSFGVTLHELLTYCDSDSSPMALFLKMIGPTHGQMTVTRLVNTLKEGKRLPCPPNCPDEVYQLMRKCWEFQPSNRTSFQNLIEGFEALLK
T1 sequence (O60674 808-1132): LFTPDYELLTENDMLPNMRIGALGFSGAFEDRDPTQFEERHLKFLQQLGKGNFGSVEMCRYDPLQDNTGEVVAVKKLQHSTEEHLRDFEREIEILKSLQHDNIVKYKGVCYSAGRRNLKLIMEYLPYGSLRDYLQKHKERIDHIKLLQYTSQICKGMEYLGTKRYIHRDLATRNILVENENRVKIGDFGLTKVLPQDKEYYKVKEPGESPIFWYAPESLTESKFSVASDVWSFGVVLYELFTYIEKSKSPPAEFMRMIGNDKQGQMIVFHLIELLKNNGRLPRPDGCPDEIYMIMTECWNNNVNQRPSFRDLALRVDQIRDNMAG
T3 sequence (P52333 781-1124): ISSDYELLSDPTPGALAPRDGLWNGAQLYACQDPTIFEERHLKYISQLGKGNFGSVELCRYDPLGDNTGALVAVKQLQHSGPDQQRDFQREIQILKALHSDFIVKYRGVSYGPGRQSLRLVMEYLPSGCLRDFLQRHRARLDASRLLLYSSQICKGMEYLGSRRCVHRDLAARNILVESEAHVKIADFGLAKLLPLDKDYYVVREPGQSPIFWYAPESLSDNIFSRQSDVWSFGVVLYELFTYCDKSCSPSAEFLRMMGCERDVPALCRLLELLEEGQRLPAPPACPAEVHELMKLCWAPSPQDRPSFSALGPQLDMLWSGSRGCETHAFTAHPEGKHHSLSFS

The IC50 is the point on the concentration scale where inhibition reaches its midpoint. With `CCc1ccccc1N(CC)c1cc2c(cn1)ncn2C` [Compound 34, N-Ethyl-N-(2-ethylphenyl)-1-methyl-1H-imidazo[4,5-c]pyridin-6-amine], the IC50 is 501 to 1000 nM on human JAK2, 0.01 to 100 nM at human JAK1 and 501 to 1000 nM on human JAK3.
Consider `CCc1cc(C(=O)NCC#N)ccc1N(C)c1cc2c(cn1)ncn2C` [Compound 120, N-(cyanomethyl)-3-ethyl-4-(methyl(1-methyl-1H-imidazo[4,5-c]pyridin-6-yl)amino)benzamide], for which the IC50 lay in the range of 101 to 500 nM at human JAK2, 0.01 to 100 nM on human JAK1 and 101 to 500 nM at human JAK3.
As for `Cc1cc(CO)ccc1N(C)c1cc2c(cn1)ncn2C` [Compound 29, (3-Methyl-4-(methyl(1-methyl-1H-imidazo[4,5-c]pyridin-6-yl)amino)phenyl) MeOH], the results for the IC50 at human JAK2, at human JAK1 and at human JAK3 were > 1000 nM, 0.01 to 100 nM and > 1000 nM, respectively.
With `Cc1ccc(OCC(C)C)cc1N(C)c1cc2c(cn1)ncn2C` [Compound 63, N-(5-isobutoxy-2-methylphenyl)-N,1-dimethyl-1H-imidazo[4,5-c]pyridin-6-amine], the IC50 at human JAK2 was > 1000 nM; at human JAK1 it was 101 to 500 nM; at human JAK3, > 1000 nM.
Turning to `Cc1ccc(OCCCC#N)cc1N(C)c1cc2c(cn1)ncn2C` [Compound 60, 4-(4-methyl-3-(methyl(1-methyl-1H-imidazo[4,5-c]pyridin-6-yl)amino)phenoxy)butane nitrile], the IC50 on human JAK2 is > 1000 nM; on human JAK1, 0.01 to 100 nM; at human JAK3, 101 to 500 nM.
For the compound `COc1cc(N2CCOCC2)ncc1N(C)c1cc2c(cn1)ncn2C` [Compound 313, (4-Methoxy-6-morpholin-4-yl-pyridin-3-yl)-methyl-(1-methyl-1H-imidazo[4,5-c]pyridine-6-yl)-amine], the IC50 at human JAK2 fell in the range of 101 to 500 nM; on human JAK1, 0.01 to 100 nM; on human JAK3, 501 to 1000 nM.
`Cc1cc(O)ccc1N(C)c1cc2c(cn1)ncn2C` [Compound 38, 3-Methyl-4-(methyl(1-methyl-1H-imidazo[4,5-c]pyridin-6-yl)amino)phenol]: the IC50 was > 1000 nM at human JAK2, 0.01 to 100 nM at human JAK1 and 501 to 1000 nM at human JAK3.
As for `CCc1cc(-c2cncnc2)ccc1N(C)c1cc2c(cn1)ncn2C` [Compound 95, N-(2-ethyl-4-(pyrimidin-5-yl)phenyl)-N,1-dimethyl-1H-imidazo[4,5-c]pyridin-6-amine], the IC50 at human JAK2 is 101 to 500 nM; at human JAK1, 0.01 to 100 nM; on human JAK3, > 1000 nM.
For `CCc1cc(C(C)O)ccc1N(C)c1cc2c(cn1)ncn2C` (stereo not drawn) [Compound 101, 1-(3-Ethyl-4-(methyl(1-methyl-1H-imidazo[4,5-c]pyridin-6-yl)amino)phenyl)ethanol], in that order: 0.01 to 100 nM, 0.01 to 100 nM and 101 to 500 nM.
For `CCc1cc(C2CN(CC#N)C2)ncc1N(C)c1cc2c(cn1)ncn2C` [Compound 331, (3-{4-Ethyl-5-[methyl-(1-methyl-1H-imidazo[4,5-c]pyridin-6-yl)-amino]-pyridin-2-yl}-azetidin-1-yl)-acetonitrile], in that order: 101 to 500 nM, 0.01 to 100 nM and > 1000 nM.
In the case of `Cc1cc(-c2cn[nH]c2)ccc1N(C)c1cc2c(cn1)ncn2C` [Compound 71, N,1-Dimethyl-N-(2-methyl-4-(1H-pyrazol-4-yl)phenyl)-1H-imidazo[4,5-c]pyridin-6-amine], the figures for the IC50 at human JAK2, on human JAK1 and at human JAK3 were 101 to 500 nM, 0.01 to 100 nM and 501 to 1000 nM, respectively.
`CCc1ccc(C#N)cc1N(C)c1cc2c(cn1)ncn2C` [Compound 83, 4-ethyl-3-(methyl(1-methyl-1H-imidazo[4,5-c]pyridin-6-yl)amino)benzonitrile]: the IC50 on human JAK2 is 101 to 500 nM; on human JAK1, 0.01 to 100 nM; at human JAK3 it was > 1000 nM.
In the case of `Cc1c(OCC#N)cccc1N(C)c1cc2c(cn1)ncn2C` [Compound 64, 2-(2-methyl-3-(methyl(1-methyl-1H-imidazo[4,5-c]pyridin-6-yl)amino)phenoxy)acetoni-trile], the IC50 was 101 to 500 nM on human JAK2, 0.01 to 100 nM on human JAK1 and 101 to 500 nM at human JAK3.
Take `CCc1cc(CNS(C)(=O)=O)cc(F)c1N(C)c1cc2c(cn1)ncn2C` [Compound 323, N-{3-Ethyl-5-fluoro-4-[methyl-(1-methyl-1H-imidazo[4,5-c]pyridin-6-yl)-amino]-benzyl}-methanesulfonamide]: the IC50 on human JAK2, at human JAK1 and on human JAK3 was 0.01 to 100 nM in each case.
As for `CCc1cc(C2CN(C(C)=O)C2)ncc1N(C)c1cc2c(cn1)ncn2C` [Compound 332, 1-(3-{4-Ethyl-5-[methyl-(1-methyl-1H-imidazo[4,5-c]pyridin-6-yl)-amino]-pyridin-2-yl}-azetidin-1-yl)-ethanone], the IC50 at human JAK2 is 501 to 1000 nM; on human JAK1, 101 to 500 nM; at human JAK3, > 1000 nM.
Turning to `CCc1cc(CNS(=O)(=O)C(F)F)ncc1N(C)c1cc2c(cn1)ncn2C` [Compound 343, N-{4-Ethyl-5-[methyl-(1-methyl-1H-imidazo[4,5-c]pyridin-6-yl)-amino]-pyridin-2-ylmethyl}-C,C-difluoro-methane sulfonamide], the IC50 at human JAK2 was in the range of 101 to 500 nM; on human JAK1, 0.01 to 100 nM; at human JAK3, 101 to 500 nM.
Consider `CCc1cc(-c2ccc(CNC(=O)OC(C)(C)C)s2)ncc1N(C)c1cc2c(cn1)ncn2C` [Compound 302], for which the IC50 on human JAK2 is 101 to 500 nM; on human JAK1, 0.01 to 100 nM; on human JAK3, > 1000 nM.
In the case of `CCc1ccccc1N(CC1CC1)c1cc2c(cn1)ncn2C` [Compound 35, N-(cyclopropylmethyl)-N-(2-ethylphenyl)-1-methyl-1H-imidazo[4,5-c]pyridin-6-amine], the figures for the IC50 at human JAK2, on human JAK1 and on human JAK3 were > 1000 nM, 0.01 to 100 nM and 501 to 1000 nM, respectively.
Consider `CCc1cc(CNS(C)(=O)=O)c(F)cc1N(C)c1cc2c(cn1)ncn2C` [Compound 325, N-{5-Ethyl-2-fluoro-4-[methyl-(1-methyl-1H-imidazo[4,5-c]pyridin-6-yl)-amino]-benzyl}-methanesulfonamide], for which the figures for the IC50 on human JAK2, on human JAK1 and at human JAK3 were 0.01 to 100 nM, 0.01 to 100 nM and 101 to 500 nM, respectively.
Consider `CCc1cc(-c2ccc(Cl)s2)ncc1N(C)c1cc2c(cn1)ncn2C` [Compound 304, [6-(5-Chloro-thiophen-2-yl)-4-ethyl-pyridin-3-yl]-methyl-(1-methyl-1H-imidazo[4,5-c]pyridin-6-yl)-amine], for which the IC50 at human JAK2, on human JAK1 and at human JAK3 was 0.01 to 100 nM each time.
`Cc1cc(-c2cnn(C)c2)ccc1N(C)c1cc2c(cn1)ncn2C` [Compound 73, N,1-dimethyl-N-(2-methyl-4-(1-methyl-1H-pyrazol-4-yl)phenyl)-1H-imidazo[4,5-c]pyridin-6-amine]: the IC50 on human JAK2 was 501 to 1000 nM; at human JAK1, 0.01 to 100 nM; at human JAK3, > 1000 nM.
Taken in the same sequence, the figures for `COC(=O)c1ccc(N(C)c2cc3c(cn2)ncn3C)c(C)c1` [Compound 27, Methyl 3-methyl-4-(methyl(1-methyl-1H-imidazo[4,5-c]pyridin-6-yl)amino)benzoate] were > 1000 nM, 101 to 500 nM and > 1000 nM.
For `CCc1cc(-c2ccc(C)s2)ncc1N(C)c1cc2c(cn1)ncn2C` [Compound 311, [4-Ethyl-6-(5-methyl-thiophen-2-yl)-pyridin-3-yl]-methyl-(1-methyl-1H-imidazo[4,5-c]pyridin-6-yl)-amine], in that order: 0.01 to 100 nM, 0.01 to 100 nM and 101 to 500 nM.
Take `Cc1ccc(OCc2cccnc2)cc1N(C)c1cc2c(cn1)ncn2C` [Compound 61, N,1-dimethyl-N-(2-methyl-5-(pyridin-3-ylmethoxy)phenyl)-1H-imidazo[4,5-c]pyridin-6-amine]: the IC50 is > 1000 nM at human JAK2, 0.01 to 100 nM on human JAK1 and > 1000 nM at human JAK3.
As for `CCc1cc(-c2cnc(NC(C)=O)nc2)ccc1N(C)c1cc2c(cn1)ncn2C` [Compound 115, N-(5-(3-Ethyl-4-(methyl(1-methyl-1H-imidazo[4,5-c]pyridin-6-yl)amino)phenyl)pyrimidin-2-yl)acetamide], the figures for the IC50 at human JAK2, at human JAK1 and at human JAK3 were 101 to 500 nM, 0.01 to 100 nM and > 1000 nM, respectively.
For the compound `CCc1cc(CN(C)S(C)(=O)=O)c(F)cc1N(C)c1cc2c(cn1)ncn2C` [Compound 319, N-{5-Ethyl-2-fluoro-4-[methyl-(1-methyl-1H-imidazo[4,5-c]pyridin-6-yl)-amino]-benzyl}-N-methyl-methanesulfonamide], the IC50 on human JAK2, on human JAK1 and at human JAK3 was 0.01 to 100 nM each time.
Take `CCc1ccc(F)cc1N(C)c1cc2c(cn1)ncn2C` [Compound 84, N-(2-ethyl-5-fluorophenyl)-N,1-dimethyl-1H-imidazo[4,5-c]pyridin-6-amine]: the IC50 at human JAK2 was in the range of 101 to 500 nM; on human JAK1 it was 0.01 to 100 nM; on human JAK3, 501 to 1000 nM.
